Common to all, as to format: cell-based
For test [1], the system named is phosphorylation of AKT (pAKT) in T47D cells expressing mutant PI3Ka (H1047R). In words: In vitro cell pAKT (Ser473) HTRF, T47D cells. The following applies: cellular pAKT, T47D cells, mutant PI3Ka (H1047R), 6 hours, read-out: Avg T-47D IC50. An outline of the steps: (§1)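 T47D cells (RPMI, 10% FBS, 0.2 units/mL insulin) or SKBR3 cells (McCoy's 5a, 10% FBS) were seeded onto 10-point compound dilutions and incubated 6 h at 37 °C. After lysis, pAKT was detected overnight by HTRF (Eu cryptate/d2). IC50 was fitted from % inhibition relative to 0.1% DMSO and 10 uM alpelisib controls.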
Background: Time-resolved FRET reads energy transfer from a long-lived donor to a nearby acceptor.

For test [2], the system named is T47D cells expressing mutant PI3Ka (H1047R). In words: In vitro cell proliferation, T47D cells (CellTiter-Glo). The following applies: inhibition of proliferation, read-out: Avg T-47D EC50. An outline of the steps: (§2)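 T47D (PI3Kα H1047R; RPMI, 10% FBS, insulin 0.2 units/mL) or SKBR3 (WT PI3Kα; McCoys 5a, 10% FBS) cells seeded at 1,500 cells/well on 10-point compound dilutions, grown 72 h at 37 °C. CellTiter-Glo luminescence; inhibition normalised to 0.1% DMSO and 10 uM alpelisib, EC50 from four-parameter fit.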
A general note: In ATP-based viability assays light output follows the ATP content of the culture.

For test [3], the system named is SKBR3 cells express WT PI3Ka. In words: In vitro cell proliferation, SKBR3 cells (CellTiter-Glo). The following applies: inhibition of proliferation. The gist of the method: as §2
The subject of test [4] is phosphorylation of AKT (pAKT) in SKBR3 cells express WT PI3Ka. In words: In vitro cell pAKT (Ser473) HTRF, SKBR3 cells. To be noted: cellular pAKT. The gist of the method: as §1

Like-named read-outs stand apart in the source and are kept apart here. A value given as a limit tells only on which side of the number the result lay.

Regarding `CC(Nc1cccc(F)c1C(=O)O)c1cc(F)cc2c(=O)n(C)c(-c3cnc(OC4CC(F)C4)c(F)c3)cc12` (stereo not shown) [Example 388], the IC50 in test [1] was 1 to 500 nM; in test [4] (6 hours), above 15000 nM. In addition, the EC50 in test [2] (72 hours) is 1 to 500 nM; in test [3] (72 hours) it was above 15000 nM.
Regarding `C[C@@H](Nc1cccc(F)c1C(=O)O)c1cc(F)cc2c(=O)n(C)c(-c3cnc(OC4CC4)c(F)c3)cc12` [Example 390], the IC50 in test [1] was 1 to 500 nM; in test [4] (6 hours), above 15000 nM. Besides, the EC50 is 1 to 500 nM in test [2] (72 hours) and above 15000 nM in test [3] (72 hours).
On to `Cc1cc([C@@H](C)Nc2ccccc2C(=O)O)c2cc(-c3cnc(CF)cn3)n(C)c(=O)c2c1` [Example 393], for which the IC50 was 1 to 500 nM in test [1] (Homo sapiens, T47D, 6 h) and above 15000 nM in test [4] (Homo sapiens, SK-BR-3, 6 h). For the same molecule, the EC50 was 1 to 500 nM in test [2] (Homo sapiens, T47D, 72 h) and above 15000 nM in test [3] (Homo sapiens, SK-BR-3, 72 h).
As for `Cc1cc([C@@H](C)Nc2ccccc2C(=O)O)c2cc(-c3cnc(OC4CC4)cn3)n(C)c(=O)c2c1` [Example 394], the results for the half-inhibitory concentration (IC50) in test [1] and in test [4] (6 hours) were 1 to 500 nM and above 15000 nM, respectively. Also, the EC50 is 1 to 500 nM in test [2] (72 hours) and above 15000 nM in test [3] (72 hours).
Turning to `Cc1cc([C@@H](C)Nc2ccccc2C(=O)O)c2cc(-c3cnc(C(C)(F)F)cn3)n(C)c(=O)c2c1` [Example 395], the IC50 was 1 to 500 nM in test [1] and above 15000 nM in test [4] (6 hours). Further, the concentration for a half-maximal effect (EC50) in test [2] (72 hours) is 1 to 500 nM; in test [3] (72 hours) it was above 15000 nM.
Consider `Cc1cc([C@@H](C)Nc2ccccc2C(=O)O)c2cc(-c3ccc(C(F)(F)F)cn3)n(C)c(=O)c2c1` [Example 396], for which the half-maximal inhibitory concentration (IC50) in test [1] (Homo sapiens, T47D, 6 h) is 1 to 500 nM; in test [4] (Homo sapiens, SK-BR-3, 6 h), above 15000 nM. Besides, the EC50 in test [2] (Homo sapiens, T47D, 72 h) is 1 to 500 nM; in test [3] (Homo sapiens, SK-BR-3, 72 h) it was above 15000 nM.
Regarding `Cc1ncncc1N1CCN(c2cc3c([C@@H](C)Nc4cccc(F)c4C(=O)O)cc(F)cc3c(=O)n2C)CC1` [Example 397], the IC50 in test [1] is 500 to 2000 nM; in test [4] (6 hours), above 15000 nM. Also, the EC50 in test [2] (72 hours) was 1 to 500 nM; in test [3] (72 hours) it was above 15000 nM.
Regarding `C[C@@H](Nc1cccc(F)c1C(=O)O)c1cc(F)cc2c(=O)n(C)c(N3C4CCC3CN(CC(F)(F)F)C4)cc12` [Example 398], the IC50 in test [1] (Homo sapiens, T47D, 6 h) was 1 to 500 nM; in test [4] (Homo sapiens, SK-BR-3, 6 h), 2000 to 15000 nM. Moreover, the EC50 was 1 to 500 nM in test [2] (Homo sapiens, T47D, 72 h) and above 15000 nM in test [3] (Homo sapiens, SK-BR-3, 72 h).
Turning to `Cc1cc([C@@H](C)Nc2ccccc2C(=O)O)c2cc(Cl)n(C)c(=O)c2c1` [Example 400], the 50% inhibitory concentration (IC50) was 500 to 2000 nM in test [1] (Homo sapiens, T47D, 6 h) and above 15000 nM in test [4] (Homo sapiens, SK-BR-3, 6 h). The EC50 in test [2] (Homo sapiens, T47D, 72 h) was 500 to 2000 nM; in test [3] (Homo sapiens, SK-BR-3, 72 h), above 15000 nM.
Consider `Cc1ncc(-c2ncc(-c3cc4c([C@@H](C)Nc5cccc(F)c5C(=O)O)cc(F)cc4c(=O)n3C)cc2F)cc1F` [Example 403], for which the IC50 in test [1] (Homo sapiens, T47D, 6 h) was 1 to 500 nM; in test [4] (Homo sapiens, SK-BR-3, 6 h), above 15000 nM. For the same molecule, the EC50 in test [2] (Homo sapiens, T47D, 72 h) is 1 to 500 nM; in test [3] (Homo sapiens, SK-BR-3, 72 h), above 15000 nM.
In the case of `C[C@@H](Nc1cccc(F)c1C(=O)O)c1cc(F)cc2c(=O)n(C)c(-c3cnc(-c4cncc(F)c4)c(F)c3)cc12` [Example 404], the half-inhibitory concentration (IC50) is 1 to 500 nM in test [1] (Homo sapiens, T47D, 6 h) and above 15000 nM in test [4] (Homo sapiens, SK-BR-3, 6 h). For the same molecule, the EC50 in test [2] (Homo sapiens, T47D, 72 h) was 1 to 500 nM; in test [3] (Homo sapiens, SK-BR-3, 72 h), above 15000 nM.
Turning to `Cc1cc([C@@H](C)Nc2ccccc2C(=O)O)c2cc(N3CC(CC(F)(F)F)C3)n(C)c(=O)c2c1` [Example 405], the IC50 in test [1] (Homo sapiens, T47D, 6 h) is 1 to 500 nM; in test [4] (Homo sapiens, SK-BR-3, 6 h), above 15000 nM. In addition, the half-maximal effective concentration (EC50) in test [2] (Homo sapiens, T47D, 72 h) is 500 to 2000 nM; in test [3] (Homo sapiens, SK-BR-3, 72 h) it was above 15000 nM.
For the molecule `CC(Nc1cccc(F)c1C(=O)O)c1cc(F)cc2c(=O)n(C)c(-c3ccc(OC4CC(F)C4)nc3)cc12` (stereo not shown) [Example 407], the IC50 was 1 to 500 nM in test [1] and above 15000 nM in test [4] (6 hours). In addition, the values for the EC50 in test [2] (72 hours) and in test [3] (72 hours) were 1 to 500 nM and above 15000 nM, respectively.
Take `Cc1ccc(C2CN(c3cc4c([C@@H](C)Nc5cccc(F)c5C(=O)O)cc(F)cc4c(=O)n3C)C2)cn1` [Example 409]: the IC50 was 500 to 2000 nM in test [1] and above 15000 nM in test [4] (6 hours). Also, the EC50 in test [2] (72 hours) is 500 to 2000 nM; in test [3] (72 hours), above 15000 nM.
On to `Cc1cc([C@@H](C)Nc2cccc(F)c2C(=O)O)c2cc(N3CCN(C)[C@@H](C(F)(F)F)C3)n(C)c(=O)c2c1` [Example 410], for which the IC50 in test [1] (Homo sapiens, T47D, 6 h) was 1 to 500 nM; in test [4] (Homo sapiens, SK-BR-3, 6 h) it was above 15000 nM. Moreover, the EC50 in test [2] (Homo sapiens, T47D, 72 h) was 1 to 500 nM; in test [3] (Homo sapiens, SK-BR-3, 72 h) it was above 15000 nM.
On to `Cc1cc([C@@H](C)Nc2cccc(F)c2C(=O)O)c2cc(N3CCN(C)[C@H](C(F)(F)F)C3)n(C)c(=O)c2c1` [Example 411], for which the IC50 in test [1] (Homo sapiens, T47D, 6 h) was 1 to 500 nM; in test [4] (Homo sapiens, SK-BR-3, 6 h) it was above 15000 nM. The concentration for a half-maximal effect (EC50) in test [2] (Homo sapiens, T47D, 72 h) is 1 to 500 nM; in test [3] (Homo sapiens, SK-BR-3, 72 h) it was above 15000 nM.

By IC50 is commonly meant the concentration needed to halve the response being measured. As a reminder, the EC50 is the midpoint of the concentration-response curve.
